Entries after “also recorded” stand apart in the source; their conditions may differ.
How the values were obtained:
HDAC I/II [1] = experiment: HDAC-Glo I/II assay in HCT116 cells; type: cell-based, human; conditions: for HDAC-Glo: Efficacy, HCT116 / Efficacy, HDAC-Glo I/II HCT116 assay: maximal response
human neural stem cells = experiment: CellTiter-Glo cell viability assay in hNSC; type: cell-based; conditions: for IC50: Homo sapiens, Neural stem cell, 1 h, read-out: Viability: IC50, hNSC
[2] = CellTiter-Glo cell viability assay in hNSC; type: cell-based, human; conditions: human, human neural stem cells (hNSC)
HCT116 cells = experiment: CellTiter-Glo cell viability assay in HCT116; type: cell-based, human; conditions: for IC50: Homo sapiens, HCT-116, 1 h, read-out: Viability: IC50, HCT116; for Viability: IC50, HCT116: cherry-pick confirmation, 1 hour
[3] = CellTiter-Glo cell viability assay in HCT116; type: cell-based, human; conditions: human, HCT116 cells
HDAC I/II [4] = experiment: HDAC-Glo I/II assay in human neural stem cells; type: cell-based; conditions: for HDAC-Glo: Efficacy, hNSC: maximal response
HDAC6 = molecular target: T1, HDAC6 (Homo sapiens, UniProt Q9UBN7); experiment: Fluorogenic isoform-specific HDAC assay, HDAC6; type: biochemical
T1 sequence (Q9UBN7 1-1215): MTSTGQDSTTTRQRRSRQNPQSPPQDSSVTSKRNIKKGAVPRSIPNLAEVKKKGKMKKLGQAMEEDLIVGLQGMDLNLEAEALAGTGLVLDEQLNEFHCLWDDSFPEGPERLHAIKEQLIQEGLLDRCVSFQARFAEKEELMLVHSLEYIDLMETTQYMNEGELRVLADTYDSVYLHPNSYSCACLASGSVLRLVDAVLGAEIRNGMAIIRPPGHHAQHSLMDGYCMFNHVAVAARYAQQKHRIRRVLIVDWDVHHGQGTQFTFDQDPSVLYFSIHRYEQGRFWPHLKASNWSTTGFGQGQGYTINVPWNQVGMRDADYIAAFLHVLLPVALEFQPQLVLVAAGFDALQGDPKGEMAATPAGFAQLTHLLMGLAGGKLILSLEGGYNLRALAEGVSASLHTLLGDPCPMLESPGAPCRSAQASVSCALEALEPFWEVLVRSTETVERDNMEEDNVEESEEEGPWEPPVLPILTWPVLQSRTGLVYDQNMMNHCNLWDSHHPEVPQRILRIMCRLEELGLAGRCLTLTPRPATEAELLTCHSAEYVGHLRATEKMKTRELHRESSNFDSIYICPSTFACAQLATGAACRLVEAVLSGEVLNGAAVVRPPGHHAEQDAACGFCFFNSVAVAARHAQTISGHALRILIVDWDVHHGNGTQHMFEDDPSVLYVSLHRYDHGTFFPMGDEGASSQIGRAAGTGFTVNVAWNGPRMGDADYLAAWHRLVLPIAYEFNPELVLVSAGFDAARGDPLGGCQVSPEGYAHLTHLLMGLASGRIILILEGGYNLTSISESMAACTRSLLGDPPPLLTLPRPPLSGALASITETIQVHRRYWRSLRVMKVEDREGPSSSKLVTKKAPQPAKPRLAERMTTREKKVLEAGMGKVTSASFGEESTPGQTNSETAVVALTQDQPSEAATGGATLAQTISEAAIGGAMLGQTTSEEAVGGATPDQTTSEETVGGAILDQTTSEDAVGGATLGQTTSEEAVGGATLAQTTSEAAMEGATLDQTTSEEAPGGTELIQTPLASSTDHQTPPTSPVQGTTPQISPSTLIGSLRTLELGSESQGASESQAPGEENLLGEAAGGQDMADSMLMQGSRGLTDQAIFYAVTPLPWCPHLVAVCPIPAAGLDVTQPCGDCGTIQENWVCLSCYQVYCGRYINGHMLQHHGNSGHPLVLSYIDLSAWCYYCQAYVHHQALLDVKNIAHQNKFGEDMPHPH

HDAC3 = HDAC3 (Homo sapiens, UniProt O15379); experiment: Fluorogenic isoform-specific HDAC assay, HDAC3; type: biochemical
Chain of HDAC3 (O15379 whole entry, canonical isoform): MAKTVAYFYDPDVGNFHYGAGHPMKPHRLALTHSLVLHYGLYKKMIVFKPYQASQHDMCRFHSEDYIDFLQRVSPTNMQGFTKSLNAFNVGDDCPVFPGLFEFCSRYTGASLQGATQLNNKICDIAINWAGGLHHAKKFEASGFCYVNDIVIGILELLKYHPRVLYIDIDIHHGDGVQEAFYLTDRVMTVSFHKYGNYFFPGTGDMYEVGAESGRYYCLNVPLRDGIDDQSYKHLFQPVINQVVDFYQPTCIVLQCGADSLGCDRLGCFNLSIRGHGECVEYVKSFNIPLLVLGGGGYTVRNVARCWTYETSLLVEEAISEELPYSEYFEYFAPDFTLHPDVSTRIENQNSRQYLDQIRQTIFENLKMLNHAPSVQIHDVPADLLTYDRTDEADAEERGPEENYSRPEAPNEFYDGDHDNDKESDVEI
Chain of HDAC3 (Q9Y618 395-489 partner limits assumed): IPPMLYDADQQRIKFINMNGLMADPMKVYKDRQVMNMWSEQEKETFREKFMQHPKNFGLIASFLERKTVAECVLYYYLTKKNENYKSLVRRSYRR

HDAC8 = molecular target: T2, HDAC8 (Homo sapiens, UniProt Q9BY41); experiment: Fluorogenic isoform-specific HDAC assay, HDAC8; type: biochemical
T2 sequence (Q9BY41 1-377): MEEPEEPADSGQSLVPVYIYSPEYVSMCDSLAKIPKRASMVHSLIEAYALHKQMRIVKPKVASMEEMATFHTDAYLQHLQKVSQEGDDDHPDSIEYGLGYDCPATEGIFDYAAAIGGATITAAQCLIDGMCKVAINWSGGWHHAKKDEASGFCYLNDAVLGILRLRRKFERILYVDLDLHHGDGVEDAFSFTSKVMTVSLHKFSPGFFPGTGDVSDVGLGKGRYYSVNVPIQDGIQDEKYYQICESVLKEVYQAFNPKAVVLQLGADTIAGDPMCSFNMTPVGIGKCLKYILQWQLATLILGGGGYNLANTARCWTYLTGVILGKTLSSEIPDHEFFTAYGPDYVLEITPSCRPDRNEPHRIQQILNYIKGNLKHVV

HDAC7 = molecular target: T3, HDAC7 (Homo sapiens, UniProt Q8WUI4); experiment: Fluorogenic isoform-specific HDAC assay, HDAC7; type: biochemical; conditions: Figure 4D, Suppl. Table S4
T3 sequence (Q8WUI4 1-952): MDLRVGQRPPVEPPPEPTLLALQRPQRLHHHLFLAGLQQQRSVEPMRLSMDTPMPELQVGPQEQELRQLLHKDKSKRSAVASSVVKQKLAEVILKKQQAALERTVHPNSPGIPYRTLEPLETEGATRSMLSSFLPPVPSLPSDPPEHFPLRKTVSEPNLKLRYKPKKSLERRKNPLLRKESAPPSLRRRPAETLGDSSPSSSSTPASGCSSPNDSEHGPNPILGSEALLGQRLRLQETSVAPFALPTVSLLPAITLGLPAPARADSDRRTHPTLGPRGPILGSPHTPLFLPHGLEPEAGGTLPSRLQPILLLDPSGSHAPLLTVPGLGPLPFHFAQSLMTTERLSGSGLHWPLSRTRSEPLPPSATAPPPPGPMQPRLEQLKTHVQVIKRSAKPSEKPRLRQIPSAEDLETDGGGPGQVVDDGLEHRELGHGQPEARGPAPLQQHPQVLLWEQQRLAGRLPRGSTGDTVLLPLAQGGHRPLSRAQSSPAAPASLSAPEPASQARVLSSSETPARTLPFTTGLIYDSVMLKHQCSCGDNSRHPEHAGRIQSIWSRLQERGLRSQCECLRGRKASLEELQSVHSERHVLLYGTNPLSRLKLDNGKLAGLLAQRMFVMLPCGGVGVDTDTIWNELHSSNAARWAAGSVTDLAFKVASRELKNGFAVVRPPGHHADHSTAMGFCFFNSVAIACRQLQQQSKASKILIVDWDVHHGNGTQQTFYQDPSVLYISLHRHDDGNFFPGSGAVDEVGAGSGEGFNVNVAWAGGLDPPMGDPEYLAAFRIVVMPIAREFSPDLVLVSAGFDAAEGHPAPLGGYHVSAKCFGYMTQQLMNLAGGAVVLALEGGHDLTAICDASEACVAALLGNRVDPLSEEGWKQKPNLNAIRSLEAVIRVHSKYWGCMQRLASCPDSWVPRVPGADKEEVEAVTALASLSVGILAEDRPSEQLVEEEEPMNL

HDAC1 = HDAC1 (Homo sapiens, UniProt Q13547); experiment: Fluorogenic isoform-specific HDAC assay, HDAC1; type: biochemical; conditions: Figure 4C, Suppl. Table S4
Chain of HDAC1 (Q13547 whole entry, canonical isoform): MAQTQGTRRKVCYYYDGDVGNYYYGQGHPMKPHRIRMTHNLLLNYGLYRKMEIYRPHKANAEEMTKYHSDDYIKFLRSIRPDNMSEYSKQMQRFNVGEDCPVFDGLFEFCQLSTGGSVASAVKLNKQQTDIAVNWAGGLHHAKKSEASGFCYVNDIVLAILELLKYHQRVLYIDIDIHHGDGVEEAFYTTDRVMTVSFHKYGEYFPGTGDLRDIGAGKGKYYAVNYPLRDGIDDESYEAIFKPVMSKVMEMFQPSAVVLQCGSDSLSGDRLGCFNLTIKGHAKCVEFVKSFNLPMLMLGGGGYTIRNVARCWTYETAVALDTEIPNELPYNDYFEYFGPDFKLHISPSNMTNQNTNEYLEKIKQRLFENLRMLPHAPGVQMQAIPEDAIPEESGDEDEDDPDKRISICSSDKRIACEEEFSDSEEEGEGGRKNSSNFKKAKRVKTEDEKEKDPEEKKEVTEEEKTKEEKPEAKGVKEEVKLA

HDAC5 = HDAC5 (Homo sapiens, UniProt Q9UQL6); experiment: Fluorogenic isoform-specific HDAC assay, HDAC5; type: biochemical
Chain of HDAC5 (Q9UQL6 whole entry, canonical isoform): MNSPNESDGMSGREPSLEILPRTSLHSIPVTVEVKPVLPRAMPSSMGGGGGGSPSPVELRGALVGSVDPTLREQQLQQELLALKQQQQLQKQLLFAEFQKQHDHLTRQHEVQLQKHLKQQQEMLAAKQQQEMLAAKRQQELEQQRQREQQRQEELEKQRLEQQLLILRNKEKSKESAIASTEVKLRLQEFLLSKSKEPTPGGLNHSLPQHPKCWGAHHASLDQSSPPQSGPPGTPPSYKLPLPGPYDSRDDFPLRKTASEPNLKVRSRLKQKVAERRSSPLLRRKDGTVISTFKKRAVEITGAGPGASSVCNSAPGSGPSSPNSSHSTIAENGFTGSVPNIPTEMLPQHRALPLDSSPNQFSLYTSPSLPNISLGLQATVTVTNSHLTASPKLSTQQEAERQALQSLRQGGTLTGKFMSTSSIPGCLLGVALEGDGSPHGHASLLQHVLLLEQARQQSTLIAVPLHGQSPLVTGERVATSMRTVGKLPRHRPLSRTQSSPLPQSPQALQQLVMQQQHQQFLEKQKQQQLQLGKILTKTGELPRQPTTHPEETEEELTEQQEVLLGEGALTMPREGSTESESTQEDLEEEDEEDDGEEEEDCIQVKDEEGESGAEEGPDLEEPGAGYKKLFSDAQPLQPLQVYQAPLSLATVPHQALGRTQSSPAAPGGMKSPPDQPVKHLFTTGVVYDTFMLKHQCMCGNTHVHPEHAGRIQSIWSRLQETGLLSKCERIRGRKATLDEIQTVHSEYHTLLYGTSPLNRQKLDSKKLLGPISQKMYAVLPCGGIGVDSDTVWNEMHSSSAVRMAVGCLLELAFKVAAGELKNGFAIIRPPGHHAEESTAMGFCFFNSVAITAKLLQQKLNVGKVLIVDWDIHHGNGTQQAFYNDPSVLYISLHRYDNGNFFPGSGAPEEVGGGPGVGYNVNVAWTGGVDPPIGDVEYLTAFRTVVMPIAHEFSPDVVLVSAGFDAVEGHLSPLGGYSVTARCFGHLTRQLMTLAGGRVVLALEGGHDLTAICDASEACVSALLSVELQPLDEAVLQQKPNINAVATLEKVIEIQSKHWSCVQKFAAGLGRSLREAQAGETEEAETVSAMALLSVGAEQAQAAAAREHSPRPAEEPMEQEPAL

HDAC2 = HDAC2 (Homo sapiens, UniProt Q92769); experiment: Fluorogenic isoform-specific HDAC assay, HDAC2; type: biochemical
Chain of HDAC2 (Q92769 whole entry, canonical isoform): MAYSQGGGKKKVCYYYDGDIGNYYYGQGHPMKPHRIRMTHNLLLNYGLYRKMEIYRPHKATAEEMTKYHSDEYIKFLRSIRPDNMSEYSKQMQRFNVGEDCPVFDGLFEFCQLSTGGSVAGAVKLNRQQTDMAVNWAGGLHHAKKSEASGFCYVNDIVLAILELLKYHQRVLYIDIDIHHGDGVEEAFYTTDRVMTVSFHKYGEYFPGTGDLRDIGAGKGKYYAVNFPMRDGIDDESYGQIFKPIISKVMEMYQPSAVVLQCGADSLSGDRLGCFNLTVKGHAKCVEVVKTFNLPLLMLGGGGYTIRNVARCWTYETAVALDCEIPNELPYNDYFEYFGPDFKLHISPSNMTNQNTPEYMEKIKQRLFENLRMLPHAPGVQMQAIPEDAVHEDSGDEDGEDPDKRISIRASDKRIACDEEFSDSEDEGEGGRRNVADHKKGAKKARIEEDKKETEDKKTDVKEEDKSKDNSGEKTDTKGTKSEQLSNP

HDAC9 = HDAC9 (Homo sapiens, UniProt Q9UKV0); experiment: Fluorogenic isoform-specific HDAC assay, HDAC9; type: biochemical
Chain of HDAC9 (Q9UKV0 whole entry, canonical isoform): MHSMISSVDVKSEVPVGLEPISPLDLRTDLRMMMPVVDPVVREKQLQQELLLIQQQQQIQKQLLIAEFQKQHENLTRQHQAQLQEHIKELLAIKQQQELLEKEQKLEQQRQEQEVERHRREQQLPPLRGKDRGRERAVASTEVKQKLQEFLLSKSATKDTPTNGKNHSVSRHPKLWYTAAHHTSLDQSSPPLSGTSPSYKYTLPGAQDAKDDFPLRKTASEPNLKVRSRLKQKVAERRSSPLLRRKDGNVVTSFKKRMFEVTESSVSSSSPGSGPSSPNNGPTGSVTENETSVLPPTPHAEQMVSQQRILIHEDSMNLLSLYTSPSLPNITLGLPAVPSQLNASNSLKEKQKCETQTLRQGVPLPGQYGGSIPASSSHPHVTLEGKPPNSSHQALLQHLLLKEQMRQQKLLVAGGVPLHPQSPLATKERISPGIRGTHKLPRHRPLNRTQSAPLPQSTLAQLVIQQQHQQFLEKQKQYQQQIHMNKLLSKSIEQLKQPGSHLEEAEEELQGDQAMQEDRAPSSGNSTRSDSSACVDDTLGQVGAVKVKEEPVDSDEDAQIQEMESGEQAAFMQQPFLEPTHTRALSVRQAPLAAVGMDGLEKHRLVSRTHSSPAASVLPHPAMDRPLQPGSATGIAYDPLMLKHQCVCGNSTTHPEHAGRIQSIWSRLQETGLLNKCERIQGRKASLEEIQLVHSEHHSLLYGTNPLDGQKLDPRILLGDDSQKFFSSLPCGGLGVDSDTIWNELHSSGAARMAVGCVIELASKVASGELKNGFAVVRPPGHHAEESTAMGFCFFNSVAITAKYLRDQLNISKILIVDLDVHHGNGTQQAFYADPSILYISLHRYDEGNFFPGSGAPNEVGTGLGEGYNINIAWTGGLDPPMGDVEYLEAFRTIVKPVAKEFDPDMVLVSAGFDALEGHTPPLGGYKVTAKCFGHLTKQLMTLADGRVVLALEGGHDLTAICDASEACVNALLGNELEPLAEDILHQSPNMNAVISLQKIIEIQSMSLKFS

HDAC I/II [5] = experiment: HDAC-Glo I/II assay in HepG2 cells; type: cell-based, human; conditions: read-out: average IC50, HDAC-Glo I/II activity; HepG2, assay optimization, Figure 1A
HDAC I/II [6] = experiment: HDAC-Glo I/II assay in SU-DHL-6 cells; type: cell-based, human; conditions: read-out: average IC50, HDAC-Glo I/II activity; SU-DHL-6, assay optimization, Figure 1A
[7] = test system: class I and II HDAC enzymes; experiment: Panel of fluorogenic assays against ten class I and II HDAC isoforms; type: biochemical, human; conditions: 20 μM
HDAC I/II [8] = experiment: HDAC-Glo I/II assay in HEK293 cells; type: cell-based, human; conditions: read-out: average IC50, HDAC-Glo I/II activity; HEK293, assay optimization, Figure 1A
[9] = read-out: HDAC-Glo: IC50, HCT116, cherry-pick confirmation, 11 concentrations, 1 hour
[10] = read-out: HDAC-Glo: IC50, hNSC, cherry-pick confirmation, 11 concentrations, 1 hour
[11] = read-out: IC50, HDAC-Glo I/II HCT116 assay, powder confirmation

Structure (SMILES)	HDAC-Glo: Efficacy, HCT116 (HDAC I/II [1]; cherry-pick confirmation)	IC50 (HDAC I/II [1]; [9])	IC50 (human neural stem cells)	viability at 1 h [2]	IC50 (HCT116 cells)	viability at 1 h [3]	HDAC-Glo: Efficacy, hNSC (HDAC I/II [4]; cherry-pick confirmation)	IC50 (HDAC I/II [4]; [10])	Efficacy, HDAC-Glo I/II HCT116 assay (HDAC I/II [1]; powder confirmation)	IC50 (HDAC I/II [1]; [11])	Viability: IC50, HCT116 (HCT116 cells)	also measured
O=C(O)c1cccc(-c2noc(-c3ccccc3F)n2)c1 [Ataluren (PTC-124), Ataluren]	111 ± 4%	830 nM	14300 ± 930 nM	86 ± 60.2%	14400 ± 2450 nM	103%	109 ± 3%	800 ± 50 nM	–	–	–	–
CNC(=O)c1ccccc1Sc1ccc2c(/C=C/c3ccccn3)n[nH]c2c1 [Axitinib]	2.97 ± 0.34 (105 ± 3) %	–	–	–	–	–	6.65 ± 0.76 (106 ± 4) %	–	–	–	–	inhibition of HDAC6 (in words) (HDAC6; 20 μM): inhibited HDADC6 the most
O=S(=O)(O)c1ccc2[nH]c(-c3ccccc3)nc2c1 [Ensulizole]	116 ± 5%	6130 ± 3060 nM	16000 ± 1040 nM	58%	13400 ± 2800 nM	70%	111 ± 1%	1940 ± 970 nM	98 ± 0%	1660 ± 730 nM	–	inhibition of HDAC3 (in words) (HDAC3; 20 μM): selectively inhibited; also recorded: selective to HDAC3
CC(=O)Oc1ccccc1C(=O)Nc1ncc([N+](=O)[O-])s1 [Nitazoxanide]	116 ± 1%	1600 ± 100 nM	12400 ± 4650 nM	40%	23600 ± 12000 nM	62%	104 ± 1%	1050 ± 120 nM	99 ± 0%	1350 ± 140 nM	–	–
Oc1cc(O)cc(/C=C/c2ccc(O)c(O)c2)c1 [Piceatannol]	105 ± 7%	5900 nM	19500 ± 2490 nM	25%	–	–	108 ± 4%	4180 nM	60 ± 4%	10300 ± 1060 nM	Inactive	IC50 (HDAC8): 3420 nM; inhibition of HDAC activity, HDAC7 (HDAC7): over 30%; inhibition of HDAC activity, HDAC1 (HDAC1): over 30%; IC50 (HDAC6): 8220 nM; IC50 (HDAC5): 890 nM; inhibition of HDAC activity, HDAC5 (HDAC5; Figure 4D, Suppl. Table S4): over 30%; inhibition of HDAC-Glo I/II luminescence signals (HDAC I/II [4]; hNSCs, cherry-pick confirmation, Figure 2): completely inhibited; IC50 (HDAC2): 5040 nM; IC50 (HDAC9): 9950 nM; inhibition of HDAC activity, HDAC9 (HDAC9; Figure 4D, Suppl. Table S4): over 30%; IC50 (HDAC3): 23300 nM
CC(/C=C/C(=O)NO)=C\[C@@H](C)C(=O)c1ccc(N(C)C)cc1 [Trichostatin A]	119 ± 5%	70 ± 10 nM	–	–	–	–	114 ± 6%	100 ± 20 nM	99 ± 0%	110 ± 10 nM	Inactive	HDAC I/II inhibitory activity (in words) (HDAC I/II [1]; HCT116 and HEK293 cells, validation with epigenetics libraries): greatly inhibited HDAC-Glo I/II activity; IC50 (HDAC I/II [1]; read-out: IC50, HDAC-Glo I/II, HCT116 cells, time course, one hour treatment): 50 ± 30 nM; IC50 (HDAC I/II [1]; read-out: average IC50, HDAC-Glo I/II activity, HCT116, assay optimization, Figure 1A): 250 nM; IC50 (HDAC I/II [5]): 50 nM; Viability: IC50, hNSC (human neural stem cells; cherry-pick confirmation, 1 hour): Inactive; IC50 (HDAC I/II [6]): 100 nM; IC50 (HDAC I/II [4]; read-out: average IC50, HDAC-Glo I/II activity, hNSC, assay optimization, Figure 1A): 440 nM; inhibition against all class I and II HDAC enzymes [7]: over 80%; inhibition of HDAC isoforms (in words) ([7]; Figure 3): inhibited activities of all isoforms; IC50 (HDAC I/II [8]): 90 nM
